Target: DP-IV (Homo sapiens, UniProt P27487)
Assay: DP-IV inhibition assay according to WO95/15309
Assay type: biochemical
Details: at concentrations up to 5 μM
Experimental: Compounds were assayed as inhibitors of DP-IV according to the methods described in WO95/15309.

Sequence of DP-IV (P27487 whole entry): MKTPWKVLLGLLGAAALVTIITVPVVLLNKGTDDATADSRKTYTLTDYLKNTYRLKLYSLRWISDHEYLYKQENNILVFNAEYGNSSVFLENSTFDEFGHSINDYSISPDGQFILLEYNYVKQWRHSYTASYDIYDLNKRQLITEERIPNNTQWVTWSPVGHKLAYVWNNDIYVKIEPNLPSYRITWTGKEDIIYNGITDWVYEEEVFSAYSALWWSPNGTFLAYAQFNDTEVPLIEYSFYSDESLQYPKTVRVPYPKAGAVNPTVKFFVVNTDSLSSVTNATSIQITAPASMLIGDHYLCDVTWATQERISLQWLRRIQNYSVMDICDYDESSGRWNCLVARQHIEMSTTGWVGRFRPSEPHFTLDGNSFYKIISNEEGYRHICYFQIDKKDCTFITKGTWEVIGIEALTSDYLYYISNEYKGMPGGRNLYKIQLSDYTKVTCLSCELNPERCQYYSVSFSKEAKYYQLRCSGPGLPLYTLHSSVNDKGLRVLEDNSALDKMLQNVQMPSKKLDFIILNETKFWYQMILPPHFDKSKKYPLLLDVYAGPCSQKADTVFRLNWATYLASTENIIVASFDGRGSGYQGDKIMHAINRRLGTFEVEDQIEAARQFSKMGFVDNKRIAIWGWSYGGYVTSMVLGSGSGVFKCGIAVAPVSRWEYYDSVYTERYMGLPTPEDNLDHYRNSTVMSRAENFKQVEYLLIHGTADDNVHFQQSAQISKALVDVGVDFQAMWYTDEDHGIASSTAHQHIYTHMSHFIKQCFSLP

SMILES	inhibition of DP-IV
CC(=O)OCOC(=O)N[C@@H](CCCNC(=O)c1cnc(Cl)c(Cl)c1)C(=O)N1CCC(F)(F)C1 [Example 8, 1-[N^α-(Acetoxymethoxycarbonyl)-N^ω-(5,6-dichloronicotinoyl)-L-ornithinyl]-3,3-difluoropyrrolidine]	do not show significant inhibition
CC(=O)OC(C)OC(=O)N[C@@H](CCCNC(=O)c1cnccn1)C(=O)N1CC(F)(F)C[C@H]1C#N (stereo partly drawn) [Example 7, (2S)-1-[N^α-(1′-Acetoxyethoxycarbonyl)-N^ω-(pyrazinyl-2-carbonyl)-L-ornithinyl]-4,4-difluoropyrrolidine-2-carbonitrile]	do not show significant inhibition

Reference: US20040235752A1, “3-fluoro-pyrrolidines as antidiabetic agents” (priority 2001, published 2004)
